Source: PMC8836295, “Essential role of pyrophosphate homeostasis mediated by the pyrophosphate-dependent phosphofructokinase in Toxoplasma gondii” (PLoS Pathogens, 2022)

Biological target: T1, PFK2-N (Toxoplasma gondii, UniProt A0A125YKV6)
T1 construct: gene PFKII; N-terminal phosphofructokinase domain, residues 1-595; recombinant, E. coli Transetta (DE3), plasmid pESUMO-PFK2N (His-SUMO vector), Ni2+ column
T1 sequence (A0A125YKV6 1-595): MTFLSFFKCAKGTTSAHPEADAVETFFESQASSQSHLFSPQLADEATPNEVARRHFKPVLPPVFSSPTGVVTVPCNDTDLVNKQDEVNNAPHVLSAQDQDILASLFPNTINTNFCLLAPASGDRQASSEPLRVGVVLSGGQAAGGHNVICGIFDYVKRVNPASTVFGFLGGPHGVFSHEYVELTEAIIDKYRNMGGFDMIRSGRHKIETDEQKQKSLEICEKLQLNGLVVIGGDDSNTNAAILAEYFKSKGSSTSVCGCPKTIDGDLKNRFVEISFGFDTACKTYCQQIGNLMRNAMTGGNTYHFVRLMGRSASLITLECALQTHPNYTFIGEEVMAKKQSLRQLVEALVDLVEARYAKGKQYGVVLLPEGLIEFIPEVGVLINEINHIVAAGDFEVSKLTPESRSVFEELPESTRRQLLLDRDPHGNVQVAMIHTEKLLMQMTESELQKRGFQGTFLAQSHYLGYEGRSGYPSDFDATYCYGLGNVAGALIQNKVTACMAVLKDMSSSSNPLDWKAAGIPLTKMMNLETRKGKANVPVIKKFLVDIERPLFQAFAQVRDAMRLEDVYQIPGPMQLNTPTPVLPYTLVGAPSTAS
Assay: NADH-coupled OD340 assay (PFP activity kit)
Format: biochemical
Settings: co-substrate F6P 4 mM

## O=P(O)(O)OP(=O)(O)O [PPi]
  NADH-coupled OD340 assay (PFP activity kit): individually purified and assayed for the PPi dependent PFK activity
